Measurements from patent publication US10626092B2, “Polymorphic forms of 3-[(2-butyl-1-(2-diethylamino-ethyl)-1H-benzoimidazol-5-yl]-N-hydroxy-acrylamide and uses thereof” (MEI PHARMA, INC., priority 2016, dated 2020).
Counter-ions that a name gives are not always drawn.

Tests used:
Type in all cases: physicochemical
[1] = Moisture sorption study (DVS analysis)
Description: A moisture sorption study was performed to investigate the physical stability of 3-[2-butyl-1-(2-diethylamino-ethyl)-1H-benzoimidazol-5-yl]-N-hydroxy-acrylamide dihydrochloride 2.5 hydrate upon exposure to several relative humidity profiles. HT-XRPD analyses were performed on the solid material obtained after the DVS analyses. The analytical method is described herein.
Differences in hygroscopicity (moisture uptake) of the various forms of a solid material provided a measure of their relative stability at increasing relative humidity. Moisture sorption isotherms of small samples were obtained using a DVS-1 system from Surface Measurement Systems (London, UK); this instrument is suitable for use with as little as a few milligrams of sample, with an accuracy of 0.1 μg. Several humidity profile were applied as described in each individual experiment. Steps consisted of 10% RH. Weight equilibration per step was set with a minimum holding time of 1 hour (10% relative humidity step). At the end of the DVS experiments, the recovered solid material was measured by HT-XRPD.

Variable humidity XRPD = details: variable humidity XRPD at 30° C.; dihydrochloride monohydrate
Excerpt: (§1) The analytical method is described herein.
as §1
(§2) For variable humidity and temperature experiments the ANSYCO HT chamber was used, installed within the D8 Advance system diffractometer (Bruker) designed with Brag-Brentano geometry and equipped with LynxEye solid state detector. The radiation used for collecting the data was CuKα1 (λ=1.54056 Å) monochromatized by germanium crystal. The material was placed on a fixed sample holder that was mounted inside the chamber.

[2] = Variable temperature XRPD; details: 25° C. to 143° C., cooling to 25° C., reheating to 155° C.
Description: To investigate the phase interconversions upon temperature exposure, a variable temperature XRPD analysis on 3-[2-butyl-1-(2-diethylamino-ethyl)-1H-benzoimidazol-5-yl]-N-hydroxy-acrylamide dihydrochloride 2.5 hydrate was performed. The experiment was run between 25° C. to 130° C. with cooling back to 25° C. at the end. […] After reaching a temperature of 130° C., the material was cooled back to 25° C.
A variable temperature XRPD experiment with 3-[2-butyl-1-(2-diethylamino-ethyl)-1H-benzoimidazol-5-yl]-N-hydroxy-acrylamide dihydrochloride monohydrate was conducted to investigate the solid form conversion that occurred upon heating. The experiment was run between 25° C. to 143° C. followed by cooling to 25° C., reheating to 155° C. and then cooling again to 25° C. (see FIG. 19).
as §2
VT-XRPD: The temperature variation rate was 10° C./min and the equilibration time, prior to starting the data collection at each temperature, was 8 min. The patterns were collected in the range 4-41°2θ, with a step of 0.01573°2θ and measuring time per step of 1 sec. The data collection time, per temperature, was 40 min.

[3] = Desolvation studies: equilibration at 125° C. in high boiling point solvents; details: two days; for Form in Ambient AAC: then accelerated aging conditions
Description: Using solvent equilibration of hydrates in high boiling point solvents has been reported as a method to obtaining desolvated forms. […] The experiments were started with approximately 50 mg of material and 100 μL of solvent. After equilibration, the solids were isolated from the solutions by centrifugation. The solids were allowed to dry under ambient conditions before HT-XRPD analysis was performed. The wet solids were analyzed by HT-XRPD immediately to avoid hydration under ambient conditions or under vacuum.

[4] = Competitive slurry conversion (thermodynamic stability) of Form 1 and Form 3; details: one week slurry
Description: Approximately 50 mg of each solid form were solid dosed in a standard HPLC vial followed by solvent addition. The competitive slurry experiments were performed in ethanol/water mixtures and methanol/water mixtures within a water activity range of 0-0.2. Approximately 50 mg of each pracinostat dihydrochloride solid form 2.5 hydrate and monohydrate were solid dosed in 1.8 mL HPLC vials. Aliquots of 100 μL of the different water mixtures were added until about half of the amount of solid was in solution. […] Upon completion of the equilibration time, the solids were separated from the liquids by centrifugation. The solids were dried under ambient conditions (ambient) and dried under vacuum (vacuum) before HT-XRPD analysis. All solid samples were exposed to accelerated gaining conditions (40° C. and 70% RH) for two days (AAC). The water content in the liquid phase was determined Karl Fischer analysis.

[5] = Long-term slurry conversion experiments
Description: Approximately 30 mg of the specific form was dosed in a standard HPLC vial and aliquots of 100 μL of solvent until a suspension was formed. […] The solids were isolated from the mother liquor and analyzed by HT-XRPD after mild drying under ambient conditions (ambient) and after thorough drying under vacuum (vacuum). All the solids were exposed to accelerated ageing conditions (2 days at 40° C./70% RH) and re-analyzed by HT-XRPD.

Thermocycling studies = details: ethanol, absolute or extra dry; dihydrochloride monohydrate
Description: The suspensions were cycled between 5° C. and 50° C. followed by aging at 25° C. for 72 hours. […] Upon completion of the incubation time, the solids were collected, dried under ambient conditions and dried under deep vacuum before being analyzed by HT-XRPD. All the measured solids were exposed to accelerated ageing conditions (2 days at 40° C./70% RH) followed by re-analysis by HT-XRPD.

[6] = Moisture sorption study (DVS analysis); remark: listed apart in the source
[7] = cycles 45-95-0-45% RH, two cycles
[8] = second DVS: 45% to 95% RH, held at 95% RH for 10 hours

water uptake between 85-95% RH [1, 7]: 17%
weight loss during desorption between 15-0% RH [1, 7]: 10%
weight loss during desorption between 95-75% RH [1, 7]: 7%
water uptake at 75% RH ([1]; first cycle of 45-95-0-45% RH): 18%
water uptake between 85-95% RH [1, 8]: 18%
weight loss after aging at 95% RH for 2 hours [1, 8]: about 12%
relative humidity at which the form is physically stable (Variable humidity XRPD): 10-85 % RH
solid form conversion upon heating [2]: No solid form conversions were observed
Form in Ambient ([3]; Anisole): Mono
Form in Ambient AAC ([3]; Anisole): 2.5
Form in Ambient ([3]; Cumene): Mono
Form in Ambient AAC ([3]; Cumene, dihydrochloride monohydrate): 2.5
Form in Ambient ([3]; N-Methyl-2-pyrrolidone, dihydrochloride monohydrate): No solids
Form in Ambient ([3]; p-Xylene): Mono
Form in Ambient AAC ([3]; p-Xylene): 2.5
water content of the solvent system at which the form is the most stable / obtained form ([4]; ethanol/water, 5° C. (below ambient), dihydrochloride monohydrate): below 2%
water content of the solvent system at which the form is the most stable form ([4]; ethanol/water, 50° C. (elevated temperatures), dihydrochloride monohydrate): 2-4%
water content of the solvent system at which the form is the most stable form ([4]; methanol/water, 5° C.): below 6%
solid form after slurry ([5]; no water present in the solvent system): conversion to the anhydrous Form 9
solid form after thermocycling (Thermocycling studies): transformed into the anhydrous Form 9
relative humidity level above which conversion to the 2.5 hydrate (Form 3) occurs ([6]; DVS 45-95% RH): above 85%
hygroscopicity ([6]; DVS, dihydrochloride monohydrate): hygroscopic
SMILES: CCCCc1nc2cc(/C=C/C(=O)NO)ccc2n1CCN(CC)CC [Form 1, 3-[2-butyl-1-(2-diethylamino-ethyl)-1H-benzoimidazol-5-yl]-N-hydroxy-acrylamide dihydrochloride monohydrate]
solid form recovered after DVS ([1]; 45-95-0% RH with aging for 5 hours at 0% RH, HT-XRPD): 2.5 hydrate (Form 3) with a small contamination of the hemihydrate (Form 10)
solid form after slurry ([5]; all ethanol/water and methanol/water mixtures at ambient conditions): transformed into the 2.5 hydrate (Form 3)
solid form recovered after DVS ([6]; two sorption-desorption cycles 45-95-0-95-0-45% RH, HT-XRPD, dihydrochloride monohydrate): conversion mainly to the 2.5 hydrate (Form 3)
